Measured values published in US20260315446A1, “ANTIFUNGAL COMPOUNDS AND USES THEREOF” (priority 2023, published 2026).
“Also recorded” adds a separate entry of the source.

Assays:
[1] = test system: IL-2 expression in primary mouse CD4+ T cells (mammalian calcineurin); conditions: previous studies; cited from earlier work
[2] = in vivo; cited from earlier work
[3] = In vivo tolerability of JH-FK-08; set-up: species or system mouse (A/J); conditions: 40 mg/kg once daily, 14 days
Procedure: FIG. 14: In vivo tolerability of JH-FK-08. Maximum tolerated dose study of female A/J mice (n=3). Animals received once daily (A) and twice daily (B) dosing, and weight over time was plotted as percent change from initial body weight.
Based on the in vitro fungal and mammalian calcineurin inhibition data, the panel of FK520 analogs was assessed and ranked. Therapeutic index (TI) scores were used to quantify the effects of structural modification on the compounds (Table 8). Therapeutic index scores were calculated for each analog as the ratio of relative change in immunosuppressive and antifungal activities compared to FK506 as previously utilized (see, I-Toy M J, et at. 2022. mBio 13:e0104922). This ratio of therapeutic benefit and host toxicity, or fungal and mammalian calcineurin inhibition, allowed us to quantify and rank these analogs. […] This is the greatest TI found within the library and allowed us to identify JH-FK-08 as a lead candidate for an in vivo study. Tolerability of JH-FK-08 was assessed by monitoring animal responses to drug dosing across 14 days, including changes in weight, fur condition, and behavior. A maximum dose of 40 mg/kg was tested in once a day dosing, and due to solubility limitations, the tolerability of JH-FK-08 at 60 and 80 mg/kg total daily doses was assessed by dosing two equal doses per day (FIG. 14). […]

C. neoformans strain H99 [4] = experiment: Murine cryptococcal infection, brain fungal burden (Example 3); format: in vivo, Cryptococcus neoformans in A/J mice; conditions: 14 days; fluconazole 6 mg/kg, JH-FK-08 40 mg/kg, i.p. twice per day
Procedure: In vivo antifungal activity and therapeutic benefit were assayed by investigating the impact of the FK520 analog on organ fungal burden during cryptococcosis. Specifically, the in vivo efficacy of JH-FK-08 on fungal burden was assessed using A/J female mice. Immunodeficient A/J mice were selected in part due to their defect in complement component five and their susceptibility to cryptococcal infection. Treatment groups included vehicle of 10% Kolliphor: ethanol (1:1) in phosphate-buffered saline (PBS), 6 mg/kg fluconazole, 40 mg/kg JH-FK-08, or the fluconazole and JH-FK-08 combination, all given via intraperitoneal (i.p.) injection twice per day beginning at 4 hours post infection. […] Mice were intranasally infected with C. neoformans strain H99, and fungal burden in the lung, spleen, and brain was assessed after 14 days of treatment.
C. neoformans inoculum was prepared by growing a 5-mL overnight YPD culture spinning in a tissue culture roller drum at 30° C. Cells were pelleted by centrifugation and washed in sterile PBS three times. Cell density was determined by hemocytometer, and cells were diluted to 2×10^6 cells/mL. Mice (10 to 20 g) were infected with 10^5 cells of C. neoformans H99. […] Following inhalation of the inoculum, animals were monitored for post anesthesia recovery. […] Fungal burden was assessed 24 h after the final dose. […]

C. neoformans strain H99 [5] = experiment: Histopathological analysis of lung tissue; format: in vivo, Cryptococcus neoformans in A/J mice; conditions: infected lung, PAS and H&E staining
C. neoformans H99 = experiment: Intranasal model of pulmonary cryptococcosis, lung fungal burden (Example 1); format: in vivo, Cryptococcus neoformans in A/J mice; conditions: day 14; JH-FK-05 60 mg/kg, fluconazole 12 mg/kg, i.p. daily
Procedure: First, in the intranasal model, animals were anesthetized and infected with 10^5 cells of wild-type H99 C. neoformans via instillation in the animal's nares. These animals were monitored for 14 days and then sacrificed. This model tests the efficacy of JH-FK-05 to treat a pulmonary infection, which is the most common manifestation of early-stage cryptococcosis in patients. […] In both models, animals were treated once daily via i.p. injection beginning 3 h after infection with either vehicle, 60 mg/kg JH-FK-05, 12 mg/kg fluconazole, or a combination of the two monotherapies.
Wild-type H99 C. neoformans cells were grown overnight at 30° C. in a roller drum in yeast extract-peptone-dextrose (YPD) medium. […] H99 cells were counted with a hemacytometer and diluted to 2×10^6 cells/mL in PBS for the pulmonary model and 2×10^5 cells/mL in PBS for the disseminated model.
Female A/J mice (3 to 4 weeks old; Jackson Laboratory) were anesthetized utilizing an isoflurane chamber. […] After 14 days, animals were either sacrificed for fungal burden analysis or monitored for health and survival until reaching a humane endpoint.
Mice were euthanized by CO2 inhalation at the predetermined experimental endpoint. […] A 100-μL aliquot of each dilution was plated on antibiotic plates (YPD, 50 μg/mL ampicillin, and 30 g/mL chloramphenicol), incubated for 48 to 72 h at 30° C., and assessed for CFU. […]

[6] = In vivo tolerability of JH-FK-05; set-up: species or system mouse; conditions: daily i.p., up to 60 mg/kg
Procedure: Based on the in vitro evidence of reduced immunosuppressive activity of JH-FK-05, it was hypothesized that this reduction would translate into reduced immunosuppression in an in vivo model. The murine model for immunosuppression measures the T cell-dependent proliferation of two immune cell subtypes in response to immunization with an antigen. Animals were treated daily via intraperitoneal (i.p.) injection with vehicle, 5 mg/kg FK506, or 60 mg/kg JH-FK-05, beginning on day −1 and ending on day 7. […] On day 0, animals were immunized with NP-OVA to stimulate T cell-dependent signaling that would result in proliferation of T follicular helper (Tfh) cells and germinal center (GC) B cells. Animals were sacrificed on day 7, and the proportions of Tfh and GC B cells in the lymph nodes were measured. […]
Groups of 6 female C57BL/6 mice (Jackson Laboratory) were treated daily by intraperitoneal (i.p.) injection with about 100 μL vehicle, 5 mg/kg FK506, or 60 mg/kg JH-FK-05 beginning on day −1. […] Mice were treated and monitored daily until they were sacrificed on day 7. Draining lymph nodes were harvested on day 7, and the populations of T follicular helper cells and GC B cells were analyzed by flow cytometry. Tfh and GC B cells were measured from T Cell Receptor β (TCRβ^+) CD4^+CD44^hi cells and TCRβ^−CD19^+ cells, respectively.

In the case of `C=CCC1C=C(C)CC(C)CC(OC)C2OC(O)(C(=O)C(=O)N3CCCCC3C(=O)OC(C(C)=CC3CCC(O)C(OC)C3)C(C)C(O)CC1=O)C(C)CC2OC` (centres unmarked) [FK506, reference compound], the “effect on T cells” value [1] is given as “cytotoxic and reduce the proliferation of T cells” and the “blood brain barrier crossing” value [2] is given as “known to cross the blood brain barrier”.

With `CC[C@@H]1/C=C(\C)C[C@H](C)C[C@H](OC)[C@H]2O[C@@](O)(C(=O)C(=O)N3CCCC[C@H]3C(=O)O[C@H](/C(C)=C/C3CC[C@@H](O)[C@H](OC)C3)[C@H](C)[C@@H](O)C/C1=N/NC(=O)OC)[C@H](C)C[C@@H]2OC` (some centres unmarked) [JH-FK-08] the “tolerability” value ([3]; 60 and 80 mg/kg total daily in two equal doses) was “Animals tolerated all dosages”, the “weight difference from vehicle-treated animals” value ([3]; 60 and 80 mg/kg total daily) was ≤ 10% and the “brain fungal burden” value (C. neoformans strain H99 [4]) was “no detectable fungal burden”. The “inflammatory response in lung tissue” value (C. neoformans strain H99 [5]) was “expected granulomatous inflammatory response admixed with mature lymphocytes and neutrophils”.

With `CC[C@@H]1/C=C(\C)C[C@H](C)C[C@H](OC)[C@H]2O[C@@](O)(C(=O)C(=O)N3CCCC[C@H]3C(=O)O[C@H](/C(C)=C/[C@@H]3CC[C@@H](O)[C@H](OC)C3)[C@H](C)[C@@H](O)C/C1=N/NC(C)=O)[C@H](C)C[C@@H]2OC` [JH-FK-05] the “reduction of lung fungal burden” value (C. neoformans H99) was ~10 fold and the “tolerability” value [6] was “tolerated at a dose as high as 60 mg/kg; also recorded: well tolerated by animals throughout the course of treatment; also recorded: animals tolerated JH-FK-05 treatment for the full treatment period”.
